Results on 25 compounds are retold here after US20090318456A1, “SUBSTITUTED PTERIDINES FOR THE TREATMENT AND PREVENTION OF VIRAL INFECTIONS” (Gilead Sciences, Inc., priority 2006, published 2009).

pEC50: −log10 of the molar value. Read-outs that look alike come from different tables or passages of the source.

Data set [1] in a line: CC50 assay (CellTiter-Glo) in Huh-7 HCV replicon cells. The data set is classed as cell-based, human. The conditions noted are these: human. Here is the method:
(§1) The anti HCV activity of specifically 2,4,6-trisubstituted pteridine derivatives was tested in a human hepatoma Huh-7 cell line harbouring a HCV replicon. The assay comprised the following steps:
(§2) Step 1: compound preparation and serial dilution involved the following alternatives, depending upon the water solubility of pteridine derivative being tested: • 1. with respect to water soluble 2,4,6-trisubstituted pteridine derivatives, 500 μL of solution in cell media (DMEM, 10% FBS, P/S, L-Glutamine) was prepared with a concentration that is twice the concentration of the starting final serial dilution concentration. 150 μL of the solution was added to the pre-specified wells in column 1 of a 96-well cell culture plate (PerkinElmer, white plate, cat. #6005181, for EC50 assay; black plate, cat. #6005182 for CC50 assay). The rest of the plate, i.e. columns 2-12, was filled with 100 μL of cell media. The plate was then placed on a Precision 2000 Workstation in order to start serial dilution. Pteridine compounds were diluted three times each step from column 1 to column 10. Column 11 was used as a blank control (no pteridine compound added). • 2. With respect to poorly water soluble pteridine derivatives, DMSO was used as a solvent, and serial dilution was performed in 50% DMSO in water, in a 384-well plate. A solution containing the relevant compound at 100-fold the concentration of the starting final serial dilution concentration was prepared in 50% DMSO in water and added to the pre-specified wells in column 1 of a polypropylene 384-well plate. This plate was then placed on a Precision 2000 Workstation in order to start serial dilution. After serial dilution, 2 μL of the solution was transferred from the 384-well plate to a 96-well cell culture plate containing 100 μL of cell media on a Biomek FX Workstation. The DMSO concentration in the final assay condition was 0.5% after cells have been added to the plate and the total volume in each well was brought to 200 μL. Step 2: to each well of the serial dilution plate prepared in step 1, 100 μL of cell media containing 6000 suspended Huh-7 HCV replicon cells was added with a Multidrop workstation. Plates were incubated for 3 days at 37° C. with 5% CO2. Step 3: detection: • 1) with respect to the EC50 assay, the media in a 96-well cell culture plate was aspirated with a Biotek EL405 plate-washer. A volume of 200 μL of a solution containing a 1:1 mixture of a cell-lysis buffer (commercially available from Promega, Luciferase Cell Culture Lysis 5× Reagent, cat. #E1531) and a luciferase substrate solution (commercially available from Promega, Luciferase Assay, cat. # E4550) was added to each well of the plate with Multidrop. The plate was incubated for 30 minutes at room temperature before the luminescence signal was measured with a TopCount plate-reader. • 2) with respect to the CC50 assay, 100 μL of a pre-mixed CellTiter-Glo (commercially available from Promega, cat. # G7572) solution was added directly to the cell culture in each well of the plate and the luminescence signal was measured with a TopCount plate-reader after 10 minutes of incubation at room temperature.
(§3) Results are expressed by the following data: • the 50% effective concentration (EC50), i.e. the concentration that protects 50% of the cell monolayer from virus-induced cythopathic effect, and • the 50% cytostatic concentration (CC50), i.e. the concentration that results in 50% inhibition of cell growth.
For orientation: ATP-based viability assays read luminescence as a measure of living cells.

Data set [2] deals with HCV replicon. The data set is described as follows: Anti-HCV replicon assay (EC50, luciferase). It counts as cell-based, Hepatitis C virus (HCV). The method, then:
as §1, §2, §3

The subject of data set [3] is Huh-7 HCV replicon cells. The data set is described as follows: CC50 assay (CellTiter-Glo) in Huh-7 HCV replicon cells. It counts as cell-based, human. The method, then:
as §1, §2, §3

[4] abbreviates: Table 1, Huh-7 HCV replicon cells, 3 days, luciferase, read-out: EC50.
[5] abbreviates: Table 3, Huh-7 HCV replicon cells, 3 days, luciferase, read-out: EC50.
Setting [6] is: Hepatitis C virus, 72 h, Table 4, Huh-7 HCV replicon cells, 3 days, luciferase, read-out: EC50.

As a reminder, the CC50 is the concentration giving 50% cytotoxicity. What is called pEC50 is the negative decadic logarithm of the EC50, by convention in mol/L. Take `CC(C)Oc1nc(N)nc2ncc(-c3ccc(F)cc3)nc12` [2-amino-4-isopropoxy-6-(4-fluorophenyl)-pteridine]: the CC50 at 3 days in data set [1] (Table 6) is > 20 µM. Further, the pEC50 in data set [2] (Hepatitis C virus, 72 h, Table 6, Huh-7 HCV replicon cells, 3 days, luciferase, read-out: EC50) was > 6.52.

Turning to `COc1ccc(-c2cnc3nc(N)nc(N4CCN(CC5CCCO5)CC4)c3n2)cc1OC` (centres unmarked) [Example 108], the CC50 in data set [3] (Table 1, 3 days) is > 20 µM. Further, in data set [2] (setting [4]), the pEC50 is 6.00 to 6.52.

For the compound `COc1ccc(-c2cnc3nc(N)nc(N4CCN(CC5OCCO5)CC4)c3n2)cc1OC` [Example 109], in data set [3] (Table 1, 3 days), the CC50 was > 20 µM. For the same compound, the pEC50 in data set [2] (setting [4]) is 6.00 to 6.52.

As for `COc1ccc(-c2cnc3nc(N)nc(N4CCN(C(=O)NCc5ccccc5)CC4)c3n2)cc1OC` [Example 111], the CC50 in data set [3] (Table 1, 3 days) was in the range of 10 to 20 µM. In data set [2] (setting [4]), the pEC50 was > 6.52.

For `COc1ccc(-c2cnc3nc(N)nc(N4CCN(C(=O)NCc5ccc(F)cc5)CC4)c3n2)cc1OC` [Example 112], the CC50 in data set [3] (Table 1, 3 days) was < 10 µM. In addition, in data set [2] (setting [4]), the pEC50 is > 6.52.

Take `COc1ccc(-c2cnc3nc(N)nc(N4CCN(C(=O)Nc5ccc(F)c(Cl)c5)CC4)c3n2)cc1OC` [Example 113]: the CC50 in data set [3] (Table 1, 3 days) was < 10 µM. Moreover, the negative logarithm of the EC50 (pEC50) in data set [2] (setting [4]) is > 6.52.

Turning to `COc1ccc(-c2cnc3nc(N)nc(N4CCN(C(=O)Nc5cccs5)CC4)c3n2)cc1OC` [Example 114], the CC50 in data set [3] (Table 1, 3 days) is < 10 µM. The pEC50 in data set [2] (setting [4]) was > 6.52.

For the compound `COc1ccc(-c2cnc3nc(N)nc(N4CCN(C(=O)NCCc5cccs5)CC4)c3n2)cc1OC` [Example 115], the CC50 in data set [3] (Table 1, 3 days) was < 10 µM. The pEC50 in data set [2] (setting [4]) was > 6.52.

As to `CCCCNC(=O)N1CCN(c2nc(N)nc3ncc(-c4ccc(OC)c(OC)c4)nc23)CC1` [Example 118], the half-maximal cytotoxic concentration (CC50) in data set [3] (Table 1, 3 days) is < 10 µM. Also, the pEC50 in data set [2] (setting [4]) is > 6.52.

`COc1ccc(-c2cnc3nc(N)nc(N4CCN(C(=O)N(C)c5ccccc5)CC4)c3n2)cc1OC` [Example 119]: in data set [3] (Table 1, 3 days), the half-maximal cytotoxic concentration (CC50) is < 10 µM. Further, in data set [2] (setting [4]), the pEC50 is > 6.52.

As to `CCN(C(=O)N1CCN(c2nc(N)nc3ncc(-c4ccc(OC)c(OC)c4)nc23)CC1)c1ccccc1` [Example 121], the CC50 in data set [3] (Table 1, 3 days) was < 10 µM. The pEC50 in data set [2] (setting [4]) was > 6.52.

With `COc1ccc(-c2cnc3nc(N)nc(N4CCN(C(=O)Nc5cccc(Cl)c5)CC4)c3n2)cc1OC` [Example 122, 2-amino-4-(N-3-chloro-phenyl-carbamoyl-piperazin-1-yl)-6-(3,4-dimethoxyphenyl)pteridine], in data set [3] (Table 1, 3 days), the CC50 is < 10 µM. In addition, the pEC50 in data set [2] (setting [4]) is > 6.52.

Turning to `COc1ccc(-c2cnc3nc(N)nc(N4CCN(C(=O)Nc5cccc(C(F)(F)F)c5)CC4)c3n2)cc1OC` [Example 123, 2-amino-4-(N-3-trifluoromethyl-phenyl-carbamoyl-piperazin-1-yl)-6-(3,4-dimethoxyphenyl)pteridine], the CC50 in data set [3] (Table 1, 3 days) is < 10 µM. Also, the pEC50 in data set [2] (setting [4]) was > 6.52.

Turning to `COc1ccc(-c2cnc3nc(N)nc(N4CCN(C(=O)Nc5ccc(Br)cc5)CC4)c3n2)cc1OC` [Example 124, 2-amino-4-(N-4-bromo-phenyl-carbamoyl-piperazin-1-yl)-6-(3,4-dimethoxyphenyl)pteridine], the CC50 in data set [3] (Table 1, 3 days) is < 10 µM. Also, the pEC50 in data set [2] (setting [4]) was > 6.52.

In the case of `CCOc1nc(N)nc2ncc(-c3ccc(F)cc3)nc12` [Example 131, 2-amino-4-ethoxy-6-(4-fluorophenyl)-pteridine], in data set [1] (Table 2), the CC50 at 3 days is > 20 µM. The pEC50 in data set [2] (Hepatitis C virus, 72 h, Table 2, Huh-7 HCV replicon cells, 3 days, luciferase, read-out: EC50) is > 6.52.

For the compound `CCC(C)Nc1nc(N)nc2ncc(-c3ccc(OC)c(OC)c3)nc12` (centres unmarked) [Example 230], the CC50 in data set [3] (Table 3, 3 days) is > 20 µM. The pEC50 in data set [2] (setting [5]) was 6.00 to 6.52.

Turning to `Nc1ccc(-c2cnc3nc(N)nc(N4CCOCC4)c3n2)cc1` [Example 231], in data set [3] (Table 3, 3 days), the CC50 was > 20 µM. In data set [2] (setting [5]), the pEC50 was 6.00 to 6.52.

In the case of `CCC(C)Nc1nc(N)nc2ncc(-c3ccc(OC)c(OC)c3)nc12` (centres unmarked) [Example 234], the CC50 in data set [3] (Table 3, 3 days) is > 20 µM. The pEC50 in data set [2] (setting [5]) is 6.00 to 6.52.

On to `CCOc1nc(NCc2ccc(F)cc2)nc2ncc(-c3ccc(F)cc3)nc12` [Example C], for which the CC50 at 3 days in data set [1] (Table 4) is > 20 µM. Besides, in data set [2] (Hepatitis C virus, Huh-7, 72 h), the pEC50 was > 6.52.

On to `NS(=O)(=O)c1ccc(CNc2nc(NCC(F)(F)F)c3nc(-c4ccc(F)cc4)cnc3n2)cc1` [Example D, 4-{[6-(4-fluoro-phenyl)-4-(2,2,2-trifluoro-ethylamino)-pteridin-2-ylamino]-methyl}-benzenesulfonamide], for which the CC50 at 3 days in data set [1] (Table 4) was > 20 µM. Moreover, in data set [2] (Hepatitis C virus, Huh-7, 72 h), the pEC50 was > 6.52.

For the compound `Fc1ccc(CNc2nc(NCC(F)(F)F)c3nc(-c4ccc(F)cc4)cnc3n2)cc1` [Example E, N2-(4-Fluoro-benzyl)-6-(4-fluoro-phenyl)-N4-(2,2,2-trifluoro-ethyl)-pteridine-2,4-diamine], in data set [1] (Table 4), the CC50 at 3 days was < 10 µM. Also, the pEC50 in data set [2] (setting [6]) is > 6.52.

`CC(Nc1nc(NCC(F)(F)F)c2nc(-c3ccc(F)cc3)cnc2n1)c1ccc(S(N)(=O)=O)cc1` (centres unmarked) [Example F, 4-{1-[6-(4-Fluoro-phenyl)-4-(2,2,2-trifluoro-ethylamino)-pteridin-2-ylamino]-ethyl}-benzenesulfonamide]: in data set [1] (Table 4), the CC50 at 3 days is < 10 µM. In data set [2] (setting [6]), the pEC50 is > 6.52.

Take `CCOc1nc(NCc2ccc(S(N)(=O)=O)cc2)nc2ncc(-c3ccc(F)cc3)nc12` [Example G, 4-{[4-Ethoxy-6-(4-fluoro-phenyl)-pteridin-2-ylamino]-methyl}-benzenesulfonamide]: the CC50 at 3 days in data set [1] (Table 4) was > 20 µM. Moreover, the pEC50 in data set [2] (setting [6]) was > 6.52.

As to `NS(=O)(=O)c1ccc(CNc2nc(NCC(F)(F)F)c3nc(-c4ccc(C(=O)NC5CC5)cc4)cnc3n2)cc1` [Example H, N-Cyclopropyl-4-[2-(4-sulfamoyl-benzylamino)-4-(2,2,2-trifluoro-ethylamino)-pteridin-6-yl]-benzamide], the CC50 at 3 days in data set [1] (Table 4) is > 20 µM. The pEC50 in data set [2] (Hepatitis C virus, Huh-7, 72 h) is 6.00 to 6.52.

`NS(=O)(=O)c1ccc(CNc2nc(NCC(F)(F)F)c3nc(-c4ccc(F)c(Cl)c4)cnc3n2)cc1` [Example I, 4-{[6-(3-Chloro-4-fluoro-phenyl)-4-(2,2,2-trifluoro-ethylamino)-pteridin-2-ylamino]-methyl}-benzenesulfonamide]: the CC50 at 3 days in data set [1] (Table 4) fell in the range of 10 to 20 µM. In addition, in data set [2] (Hepatitis C virus, Huh-7, 72 h), the pEC50 was 6.00 to 6.52.
